Results from ChEMBL document CHEMBL4229451, “Recent advances in peptidomimetics antagonists targeting estrogen receptor α-coactivator interaction in cancer therapy” (Bioorg Med Chem Lett, 2018).
Starred links: 1 amine or outer side, 2 acyl side, 3 side chain; linkers in the order of their positions; H or OH if unused. Positions of bridges follow the written chain, without caps; N, C: chain ends. Non-standard residues stand in square brackets, D forms with d. Residues, ends and D or L forms follow the SMILES beside them. αMeNle(4R-Me,6-ylidene) = C[C@H](CC=[*:3])C[C@](C)(N[*:1])C(=O)[*:2]; X3 = C[C@@H](CC=[*:3])C[C@](C)(N[*:1])C(=O)[*:2]; X2 = O=C([C@@H](CC[*:3])N[*:1])[*:2]; S5 = C=CCCC[C@](C)(N)C(=O)O

Assays:
Estrogen receptor [1] = biological target: T1, Estrogen receptor (Homo sapiens, UniProt P03372); experiment: Antagonist activity at full length recombinant human ERalpha expressed in baculovirus expression system assessed as inhibition of estradiol-induced Euphorium-labelled LTERHKILHRLLQEGSPSD peptide recruitment after 1.5 hrs by time-resolved fluorescence assay
T1 sequence (P03372 whole entry): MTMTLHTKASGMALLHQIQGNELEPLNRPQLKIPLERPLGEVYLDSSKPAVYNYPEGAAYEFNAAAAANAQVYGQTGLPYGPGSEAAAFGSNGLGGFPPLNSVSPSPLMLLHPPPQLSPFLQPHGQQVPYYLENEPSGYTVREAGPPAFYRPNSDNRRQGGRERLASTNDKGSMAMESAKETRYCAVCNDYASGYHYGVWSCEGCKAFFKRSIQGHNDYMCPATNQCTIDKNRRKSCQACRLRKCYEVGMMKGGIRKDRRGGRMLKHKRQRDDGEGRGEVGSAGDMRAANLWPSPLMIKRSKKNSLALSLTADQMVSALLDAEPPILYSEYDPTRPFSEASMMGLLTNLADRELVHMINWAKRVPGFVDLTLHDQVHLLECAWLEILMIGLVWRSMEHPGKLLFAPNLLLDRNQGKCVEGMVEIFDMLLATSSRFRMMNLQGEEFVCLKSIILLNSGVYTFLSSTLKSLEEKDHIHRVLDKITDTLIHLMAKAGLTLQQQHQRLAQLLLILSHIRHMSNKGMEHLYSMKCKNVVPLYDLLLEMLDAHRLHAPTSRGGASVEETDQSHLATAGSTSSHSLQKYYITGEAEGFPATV

Estrogen receptor beta [2] = biological target: Estrogen receptor beta (Homo sapiens, UniProt Q92731); experiment: Antagonist activity at full length recombinant human ERbeta expressed in baculovirus expression system assessed as inhibition of estradiol-induced Euphorium-labelled QAQQKSLLQQLLTE peptide recruitment after 1.5 hrs by time-resolved fluorescence assay
Estrogen receptor [3] = biological target: T1, Estrogen receptor; experiment: Binding affinity to recombinant human ERalpha LBD (301 to 553 residues) expressed in Escherichia coli BL21(DE3) using FITC-labelled compound after 1 hr by fluorescence polarization method
[4] = biological target: T2, Estrogen receptor (Homo sapiens) (UniProt P03372); experiment: (§1) Binding affinity to recombinant human ERalpha LBD (301 to 553 residues) expressed in Escherichia coli BL21(DE3) by surface plasmon resonance method
T2 sequence (whole entry): T1 sequence (P03372 whole entry)

Estrogen receptor [5] = biological target: T1, Estrogen receptor; experiment: as §1
[6] = test system: Estrogen receptor beta (Homo sapiens), Q92731 [C334S,C369S,C481S]; experiment: (§2) Binding affinity to recombinant human ERbeta LBD (259 to 498 residues) C334S/C369S/C481S triple mutant expressed in Escherichia coli BL21(DE3) by surface plasmon resonance method
Estrogen receptor beta [7] = biological target: Estrogen receptor beta (Homo sapiens, UniProt Q92731, C334S/C369S/C481S); experiment: as §2
Estrogen receptor [8] = biological target: T1, Estrogen receptor; experiment: Displacement of 5-iodoacetamidofluorescein-labelled SRC3 from C417-biotin labelled ERalpha (unknown origin) (304 to 554 residues) after 45 mins by TR-FRET assay

Chain of Estrogen receptor beta (Homo sapiens, UniProt Q92731, C334S/C369S/C481S) (Q92731 whole entry C334S/C369S/C481S, the tested form may be a part): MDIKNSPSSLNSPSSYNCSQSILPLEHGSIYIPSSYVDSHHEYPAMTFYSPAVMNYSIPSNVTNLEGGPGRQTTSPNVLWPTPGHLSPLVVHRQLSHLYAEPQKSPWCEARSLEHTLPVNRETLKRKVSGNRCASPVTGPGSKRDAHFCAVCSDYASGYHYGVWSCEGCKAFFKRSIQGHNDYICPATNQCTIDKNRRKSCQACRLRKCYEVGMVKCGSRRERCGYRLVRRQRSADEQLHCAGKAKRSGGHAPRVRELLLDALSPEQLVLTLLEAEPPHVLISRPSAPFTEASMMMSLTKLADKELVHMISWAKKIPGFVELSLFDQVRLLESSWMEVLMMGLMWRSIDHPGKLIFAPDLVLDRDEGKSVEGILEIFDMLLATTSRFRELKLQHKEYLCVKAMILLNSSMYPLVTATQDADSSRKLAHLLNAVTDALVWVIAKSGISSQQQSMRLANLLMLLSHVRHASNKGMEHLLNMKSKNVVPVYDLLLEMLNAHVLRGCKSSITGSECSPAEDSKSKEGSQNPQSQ
Chain of Estrogen receptor beta (Homo sapiens), Q92731 [C334S,C369S,C481S] (Q92731 whole entry C334S/C369S/C481S, the tested form may be a part): as above
Chain of Estrogen receptor beta (Homo sapiens, UniProt Q92731) (Q92731 whole entry, the tested form may be a part): as the sequence (Q92731 whole entry C334S/C369S/C481S, the tested form may be a part) above, with S334C, S369C, S481C counted along it

SMILES	Kd (Estrogen receptor [5]) [nM]	Kd (Estrogen receptor beta [7]) [nM]	IC50 (Estrogen receptor [8]) [nM]	also measured
CC[C@H](C)[C@@H]1NC(=O)[C@H](NC(=O)[C@@H](N)CCCNC(=N)N)CSSC[C@H](C(=O)N[C@@H](CCCNC(=N)N)C(=O)N[C@@H](CC(C)(C)C)C(=O)N[C@@H](CC(C)C)C(=O)N[C@@H](CCC(N)=O)C(N)=O)NC(=O)[C@H](CC(C)C)NC1=O				Ki (Estrogen receptor [1]): 0.07 nM; Ki (Estrogen receptor beta [2]): 1.2 nM
CC[C@H](C)[C@@H]1NC(=O)C[C@H](NC(=O)[C@@H](N)CCCNC(=N)N)C(=O)NC[C@@H](C(=O)N[C@@H](CCCNC(=N)N)C(=O)N[C@@H](CC(C)C)C(=O)N[C@@H](CC(C)C)C(=O)N[C@@H](CCC(N)=O)C(N)=O)NC(=O)[C@H](CC(C)C)NC1=O				Kd (Estrogen receptor [3]): 85 nM
CC[C@H](C)[C@@H]1NC(=O)[C@H](NC(=O)[C@@H](N)CCCNC(=N)N)CSSC[C@H](C(=O)N[C@@H](CCCNC(=N)N)C(=O)N[C@@H](CC(C)C)C(=O)N[C@@H](CC(C)C)C(=O)N[C@@H](CCC(N)=O)C(N)=O)NC(=O)[C@H](CC(C)C)NC1=O				Ki (Estrogen receptor [1]): 11 nM
CC[C@H](C)[C@H](NC(=O)[C@H](Cc1ccc(O)cc1)NC(=O)[C@@H]1C[C@H](O)CN1C(=O)[C@H](C)NC(=O)[C@H](CC(C)C)NC(=O)CCCCCNC(=O)[C@H](CCC(N)=O)NC(=O)[C@H](CC(C)C)NC(=O)[C@H](CC(C)C)NC(=O)[C@H](CCCNC(=N)N)NC(=O)[C@@H]1CNC(=O)[C@@H](NC(=O)[C@@H](N)CCCNC(=N)N)CC(=O)N[C@@H]([C@@H](C)CC)C(=O)N[C@@H](CC(C)C)C(=O)N1)C(N)=O				Kd (Estrogen receptor [3]): 30 nM
CC[C@H](C)[C@H](NC(=O)[C@H](CCCCN)NC(=O)[C@H](Cc1cnc[nH]1)NC(=O)[C@H](CCCCN)NC(=O)[C@H](CCC(=O)O)NC(C)=O)C(=O)N[C@@H](CC(C)C)C(=O)N[C@@]1(C)CCC/C=C\CCC[C@@](C)(C(=O)N[C@@H](CC(=O)O)C(=O)N[C@@H](CO)C(N)=O)NC(=O)[C@H](CC(C)C)NC(=O)[C@H](CC(C)C)NC(=O)[C@H](CCCNC(=N)N)NC1=O (Ac-EKHKIL[S5]RLL[S5]DS-NH2; staple (Z) 7-11)	75	155		Kdiss [4]: 0.129 s⁻¹; Kdiss [6]: 0.155 s⁻¹
CC[C@H](C)[C@H](NC(=O)[C@H](CCCCN)NC(=O)[C@H](Cc1cnc[nH]1)NC(C)=O)C(=O)N[C@@H](CC(C)C)C(=O)N[C@@H](Cc1cnc[nH]1)C(=O)N[C@@H](CCC(N)=O)C(=O)N[C@@H](CC(C)C)C(=O)N[C@@H](CC(C)C)C(=O)N[C@@H](CCC(N)=O)C(=O)N[C@@]1(C)CCC/C=C\CCC[C@@](C)(C(=O)N[C@H](C(N)=O)C(C)C)NC(=O)[C@H](CO)NC(=O)[C@H](CO)NC(=O)[C@H](CO)NC1=O (Ac-HKILHQLLQ[S5]SSS[S5]V-NH2; staple (Z) 10-14)	4000	2800		
CC[C@H](C)[C@H](NC(=O)[C@H](CCCCN)NC(=O)[C@H](Cc1cnc[nH]1)NC(C)=O)C(=O)N[C@@H](CC(C)C)C(=O)N[C@@H](Cc1cnc[nH]1)C(=O)N[C@@]1(C)CCC/C=C\CCC[C@@](C)(C(=O)N[C@@H](CO)C(N)=O)NC(=O)[C@H](CCC(N)=O)NC(=O)[C@H](CC(C)C)NC(=O)[C@H](CC(C)C)NC1=O (Ac-HKILH[S5]LLQ[S5]S-NH2; staple (Z) 6-10)	> 15000	> 15000		
C=CCCC[C@](C)(NC(=O)[C@H](CCCCN)NC(=O)[C@H](Cc1cnc[nH]1)NC(C)=O)C(=O)N[C@@H](CC(C)C)C(=O)N[C@@H](Cc1cnc[nH]1)C(=O)N[C@@H](CCC(N)=O)C(=O)N[C@@](C)(CCCC=C)C(=O)N[C@@H](CC(C)C)C(=O)N[C@@H](CCC(N)=O)C(=O)N[C@@H](CC(=O)O)C(=O)N[C@@H](CO)C(N)=O (Ac-HK[S5]LHQ[S5]LQDS-NH2)			1200	
CC(=O)N[C@@H](Cc1cnc[nH]1)C(=O)N[C@@H](CCCCN)C(=O)N[C@@]1(C)CCC/C=C\CCC[C@@](C)(C(=O)N[C@@H](CC(C)C)C(=O)N[C@@H](CCC(N)=O)C(=O)N[C@@H](CC(=O)O)C(=O)N[C@@H](CO)C(N)=O)NC(=O)[C@H](CCC(N)=O)NC(=O)[C@H](Cc2cnc[nH]2)NC(=O)[C@H](CC(C)C)NC1=O (Ac-HK[S5]LHQ[S5]LQDS-NH2; staple (Z) 3-7)	352	632	760	Kdiss [4]: 0.193 s⁻¹; Kdiss [6]: 0.339 s⁻¹
CC[C@H](C)[C@@H]1NC(=O)[C@@](C)(NC(=O)[C@H](Cc2cnc[nH]2)NC(C)=O)CCC/C=C\CCC[C@@](C)(C(=O)N[C@@H](CC(C)C)C(=O)N[C@@H](CC(C)C)C(=O)N[C@@H](CCC(N)=O)C(=O)N[C@@H](CC(=O)O)C(=O)N[C@@H](CO)C(N)=O)NC(=O)[C@H](Cc2cnc[nH]2)NC(=O)[C@H](CC(C)C)NC1=O (Ac-H[S5]ILH[S5]LLQDS-NH2; staple (Z) 2-6)	674	1990		Kdiss [4]: 0.256 s⁻¹; Kdiss [6]: 0.509 s⁻¹
CC[C@H](C)[C@H](NC(=O)[C@H](CCCCN)NC(=O)[C@]1(C)CCC/C=C\CCC[C@](C)(NC(C)=O)C(=O)N[C@@H](CCCCN)C(=O)N[C@@H](CCC(=O)O)C(=O)N[C@@H](CCCCN)C(=O)N1)C(=O)N[C@@H](CC(C)C)C(=O)N[C@@H](Cc1cnc[nH]1)C(=O)N[C@@H](CCC(N)=O)C(=O)N[C@@H](CC(C)C)C(=O)N[C@@H](CC(C)C)C(=O)N[C@@H](CCC(N)=O)C(=O)N[C@@H](CC(=O)O)C(=O)N[C@@H](CO)C(N)=O (Ac-[S5]KEK[S5]KILHQLLQDS-NH2; staple (Z) 1-5)	8000	8300		
CC[C@H](C)[C@@H]1NC(=O)[C@H](NC(=O)[C@@H](N)CCCCN)CSSC[C@H](C(=O)N[C@@H](CCCNC(=N)N)C(=O)N[C@@H](CC(C)C)C(=O)N[C@@H](CC(C)C)C(=O)N[C@@H](CCC(N)=O)C(N)=O)NC(=O)[C@H](CC(C)C)NC1=O (H-K[dC]IL[dC]RLLQ-NH2; disulfide 2-5)				Ki (Estrogen receptor [1]): 25 nM
CC[C@H](C)[C@@H]1NC(=O)[C@H](NC(=O)[C@@H](N)CCCNC(=N)N)CCSC[C@@H](C(=O)N[C@@H](CCCNC(=N)N)C(=O)N[C@@H](CC(C)C)C(=O)N[C@@H](CC(C)C)C(=O)N[C@@H](CCC(N)=O)C(N)=O)NC(=O)[C@H](CC(C)C)NC1=O (H-R[X2]ILCRLLQ-NH2; thioether 2-5)				Ki (Estrogen receptor [1]): 6.9 nM; Ki (Estrogen receptor beta [2]): 64 nM

Now from value to compound, other results behind:

Kd (Estrogen receptor [5]) [nM]	Kd (Estrogen receptor beta [7]) [nM]	IC50 (Estrogen receptor [8]) [nM]	SMILES	also measured
		1800	CC(=O)N[C@@H](Cc1cnc[nH]1)C(=O)N[C@@H](CCCCN)C(=O)N[C@@]1(C)CCC/C=C\C[C@@H](C)C[C@@](C)(C(=O)N[C@@H](CC(C)C)C(=O)N[C@@H](CCC(N)=O)C(=O)N[C@@H](CC(=O)O)C(=O)N[C@@H](CO)C(N)=O)NC(=O)[C@H](CCCNC(=N)N)NC(=O)[C@H](Cc2cnc[nH]2)NC(=O)[C@H](CC(C)C)NC1=O (Ac-HK[S5]LHR[αMeNle(4R-Me,6-ylidene)]LQDS-NH2; staple (Z) 3-7)	
		89	CC(=O)N[C@@H](Cc1cnc[nH]1)C(=O)N[C@@H](CCCCN)C(=O)N[C@@]1(C)C[C@@H](C)C/C=C\CCC[C@@](C)(C(=O)N[C@@H](CC(C)C)C(=O)N[C@@H](CCC(N)=O)C(=O)N[C@@H](CC(=O)O)C(=O)N[C@@H](CO)C(N)=O)NC(=O)[C@H](CCCNC(=N)N)NC(=O)[C@H](Cc2cnc[nH]2)NC(=O)[C@H](CC(C)C)NC1=O (Ac-HK[X3]LHR[S5]LQDS-NH2; staple (Z) 3-7)	
		96	CC(=O)N[C@@H](Cc1cnc[nH]1)C(=O)N[C@@H](CCCCN)C(=O)N[C@@]1(C)C[C@H](C)C/C=C\CCC[C@@](C)(C(=O)N[C@@H](CC(C)C)C(=O)N[C@@H](CCC(N)=O)C(=O)N[C@@H](CC(=O)O)C(=O)N[C@@H](CO)C(N)=O)NC(=O)[C@H](CCCNC(=N)N)NC(=O)[C@H](Cc2cnc[nH]2)NC(=O)[C@H](CC(C)C)NC1=O (Ac-HK[αMeNle(4R-Me,6-ylidene)]LHR[S5]LQDS-NH2; staple (Z) 3-7)	
